# Experimental data taken from ChEMBL document CHEMBL1125017, “Potent anticonflict activity and lessening of memory impairment with a series of novel [1]benzothieno[2,3-c]pyridines and 1,2,3,4-tetrahydro[1]benzothieno[2,3-c]pyridines” (J Med Chem, 1990).
# Tests used:
# Mus musculus [1] = assay: Lessening of memory impairment measured in mice; time of latency in seconds at an intravenous dose of 10 mg/kg.; format: functional
# Rattus norvegicus [2] = assay: Anticonflict activity measured in male wistar rats; number of shocks received in 5 min at an intravenous dose of 10 mg/kg.; format: functional
# Mus musculus [3] = species on record: Mus musculus; assay: Lessening of memory impairment by the compound was measured in mice.; format: functional
# Rattus norvegicus [4] = assay: No of shocks of 5 min was reported after oral administration of a dose of 20 mg/kg; format: functional
# Rattus norvegicus [5] = assay: No. rats showing anticonflict activity after oral administration of a dose of 20 mg/kg; Number of rats which received shocks more than twice vs shocks received in control rats to that of number of rats tested 2/8; format: functional
# Rattus norvegicus [6] = assay: No of shocks of 5 min was reported after oral administration of a dose of 40 mg/kg; format: functional
# Mus musculus [7] = assay: No. of mice showing anti-amnesic activity after oral administration of a dose of 5 mg/kg; Number of mice which prolonged latency more than twice the duration of mice administered Scopolamine singly/number of mice tested 4/8; format: functional
# Mus musculus [8] = assay: Latency step was determined after oral administration of a dose of 5 mg/kg in 8 mice; format: functional
# Rattus norvegicus [9] = assay: No. rats showing anticonflict activity after oral administration of a dose of 40 mg/kg; Number of rats which received shocks more than twice vs shocks received in control rats to that of number of rats tested 4/7; format: functional
# Mus musculus [10] = assay: No. of mice showing anti-amnesic activity after oral administration of a dose of 20 mg/kg; Number of mice which prolonged latency more than twice the duration of mice administered Scopolamine singly/number of mice tested 4/8; format: functional
# Mus musculus [11] = assay: Latency step was determined after oral administration of a dose of 40 mg/kg in 8 mice.; format: functional
# Mus musculus [12] = assay: No. of mice showing anti-amnesic activity after oral administration of a dose of 40 mg/kg; Number of mice which prolonged latency more than twice the duration of mice administered Scopolamine singly/number of mice tested 6/8; format: functional
# Mus musculus [13] = assay: Latency step was determined after oral administration of a dose of 20 mg/kg in 8 mice.; format: functional
# Mus musculus [14] = assay: […] activity after oral administration of a dose of 5 mg/kg; Number of mice which prolonged latency more than twice the duration of mice administered Scopolamine singly/number of mice tested 1/8; format: functional
# Mus musculus [15] = assay: Latency step was determined after oral administration of a dose of 20 mg/kg in 8 mice; format: functional
# Rattus norvegicus [16] = assay: No of shocks of 5 min was reported after oral administration of a dose of 40 mg/kg in 9 rats; format: functional
# Rattus norvegicus [17] = assay: No of shocks of 5 min was reported after oral administration of a dose of 20 mg/kg in 10 rats; format: functional
# Rattus norvegicus [18] = assay: No. rats showing anticonflict activity after oral administration of a dose of 5 mg/kg; Number of rats which received shocks more than twice vs shocks received in control rats to that of number of rats tested 3/10; format: functional
# Rattus norvegicus [19] = assay: No of shocks of 5 min was reported after oral administration of a dose of 5 mg/kg in 10 rats; format: functional
# Rattus norvegicus [20] = assay: No. rats showing anticonflict activity after oral administration of a dose of 40 mg/kg; Number of rats which received shocks more than twice vs shocks received in control rats to that of number of rats tested 6/9; format: functional
# Rattus norvegicus [21] = assay: No. rats showing anticonflict activity after oral administration of a dose of 20 mg/kg; Number of rats which received shocks more than twice vs shocks received in control rats to that of number of rats tested 5/10; format: functional
# [22] = biological target: T1, 5-hydroxytryptamine receptor 1A (Rattus norvegicus, UniProt P19327); assay: Binding affinity towards 5-hydroxytryptamine 1A receptor in rat brain; format: tissue-based
# T1 sequence (P19327 whole entry): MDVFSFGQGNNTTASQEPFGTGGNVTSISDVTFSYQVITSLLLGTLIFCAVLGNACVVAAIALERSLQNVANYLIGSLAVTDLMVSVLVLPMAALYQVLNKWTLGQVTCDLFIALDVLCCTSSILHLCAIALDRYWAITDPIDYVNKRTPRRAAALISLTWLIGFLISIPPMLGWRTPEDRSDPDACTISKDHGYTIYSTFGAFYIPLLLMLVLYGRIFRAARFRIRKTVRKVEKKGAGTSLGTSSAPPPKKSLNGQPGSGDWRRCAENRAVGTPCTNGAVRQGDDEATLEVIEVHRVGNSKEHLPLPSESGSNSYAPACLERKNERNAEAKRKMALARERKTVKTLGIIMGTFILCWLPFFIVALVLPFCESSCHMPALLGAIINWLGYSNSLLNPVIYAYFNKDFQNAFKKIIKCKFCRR
# [23] = biological target: GABA-A receptor; anion channel; assay: Inhibition of [3H]flunitrazepam binding to GABA-A Benzodiazepine receptor of Wistar rat cerebral cortex; format: tissue-based
# Mus musculus [24] = assay: No. rats showing anticonflict activity after oral administration of a dose of 20 mg/kg; Number of mice which prolonged latency more than twice the duration of mice administered Scopolamine singly/number of mice tested 3/8; format: functional
# Rattus norvegicus [25] = assay: No of shocks of 5 min was reported after oral administration of a dose of 5 mg/kg in 43 rats; 25/43; format: functional
# Rattus norvegicus [26] = assay: Anticonflict activity was measured in male wistar rats; number of shocks received in 5 min at a dose of 3 mg/kg ip; format: functional; conditions: route intraperitoneal
# Mus musculus [27] = assay: […] activity after oral administration of a dose of 5 mg/kg in mice; Number of mice which prolonged latency more than twice the duration of mice administered Scopolamine singly/number of mice tested 1/10; format: functional
# Rattus norvegicus [28] = assay: No. rats showing anticonflict activity after oral administration of a dose of 10 mg/kg; Number of rats which received shocks more than twice vs shocks received in control rats to that of number of rats tested 25/43; format: functional
# Rattus norvegicus [29] = assay: No. rats showing anticonflict activity after oral administration of a dose of 20 mg/kg; Number of rats which received shocks more than twice vs shocks received in control rats to that of number of rats tested 6/10; format: functional
# Mus musculus [30] = assay: […] activity after oral administration of a dose of 40 mg/kg; Number of mice which prolonged latency more than twice the duration of mice administered Scopolamine singly/number of mice tested 6/8; format: functional
# Rattus norvegicus [31] = assay: No. rats showing anticonflict activity after oral administration of a dose of 40 mg/kg; Number of rats which received shocks more than twice vs shocks received in control rats to that of number of rats tested 8/10; format: functional
# Mus musculus [32] = assay: Number of mice showing anti-amnesic activity after oral administration of a dose of 5 mg/kg; Number of mice which prolonged latency more than twice the duration of mice administered Scopolamine singly/number of mice tested 2/8; format: functional
# Mus musculus [33] = assay: No. rats showing anticonflict activity after oral administration of a dose of 20 mg/kg; Number of mice which prolonged latency more than twice the duration of mice administered Scopolamine singly/number of mice tested 4/8; format: functional
# Mus musculus [34] = assay: Latency step was determined after oral administration of a dose of 40 mg/kg in 8 mice; format: functional
Compound,Activity (Mus musculus [1]),Activity (Rattus norvegicus [2]),also measured
CCNC(=O)c1cc2c(cn1)sc1ccccc12,36.3,8.5,–
CN(C)CCNC(=O)c1cc2c(cn1)sc1ccccc12.Cl,64.5,9.6,–
COC(=O)C1Cc2c(sc3ccccc23)CN1 (centres undefined),–,17.9,Activity (Mus musculus [3]): 64.5
Cl.NCC(=O)N1CCCN(C(=O)c2cc3c(cn2)sc2ccccc23)CC1,–,14.1,–
Cl.NCCNC(=O)c1cc2c(cn1)sc1ccccc12,103.9,37.2,No. of shocks (Rattus norvegicus [4]): 9.3; Anticonflict activity (Rattus norvegicus [5]): 2; No. of shocks (Rattus norvegicus [6]): 22; Antiamnesic activity (Mus musculus [7]): 4; Activity (Mus musculus [8]): 65.5; Anticonflict activity (Rattus norvegicus [9]): 4; Antiamnesic activity (Mus musculus [10]): 4; Activity (Mus musculus [11]): 125.1; Antiamnesic activity (Mus musculus [12]): 6; Activity (Mus musculus [13]): 106.7
Cl.NCCCNC(=O)c1cc2c(cn1)sc1ccccc12,37.7,15.2,–
CC(=O)N1CCCN(C(=O)c2cc3c(cn2)sc2ccccc23)CC1.Cl,55,22.2,–
Cl.O=C(c1cc2c(cn1)sc1ccccc12)N1CCNCC1,40.7,17.8,–
CN1CCN(C(=O)c2cc3c(cn2)sc2ccccc23)CC1.Cl,44.2,3.3,–
CCCOC(=O)C1Cc2c(sc3ccccc23)CN1 (centres undefined),57.2,14.5,–
CNC(=O)c1cc2c(cn1)sc1ccccc12,28.6,8.4,–
CCOC(=O)C1Cc2c(sc3ccccc23)CN1C (centres undefined),32.9,22,–
CCOC(=O)c1cc2c(cn1)sc1ccccc12,11.3,10.7,–
CCOC(=O)C1Cc2c(sc3ccccc23)CN1C(=O)c1ccccc1Cl (centres undefined),28.1,2.5,–
CC1CCCC(C)N1C(=O)c1cc2c(cn1)sc1ccccc12 (centres undefined),–,4.5,–
O=C(c1cc2c(cn1)sc1ccccc12)N1CCCCC1,60.2,5,–
CC1CN(C(=O)c2cc3c(cn2)sc2ccccc23)CCN1.Cl (centres undefined),40.3,7.6,–
NNC(=O)c1cc2c(cn1)sc1ccccc12,20.4,11.2,–

Compound,Activity (Mus musculus [1]),Activity (Rattus norvegicus [2]),also measured
O=C(NC1CCCCC1)C1Cc2c(sc3ccccc23)CN1 (centres undefined),120.4,36.9,Antiamnesic activity (Mus musculus [14]): 1; Activity (Mus musculus [15]): 85; No. of shocks (Rattus norvegicus [16]): 26.9; Activity (Mus musculus [8]): 67.5; No. of shocks (Rattus norvegicus [17]): 28.1; Anticonflict activity (Rattus norvegicus [18]): 3; No. of shocks (Rattus norvegicus [19]): 15.5; Anticonflict activity (Rattus norvegicus [20]): 6; Anticonflict activity (Rattus norvegicus [21]): 5; Ki [22]: 0.28 µM; IC50 [23]: 1600 µM; Antiamnesic activity (Mus musculus [24]): 3
CCCCCCNC(=O)c1cc2c(cn1)sc1ccccc12,62.3,10.5,–
Cl.O=C(c1cc2c(cn1)sc1ccccc12)N1CCCNCC1,38.9,21.8,–
Cl.NCCCC(=O)N1CCCN(C(=O)c2cc3c(cn2)sc2ccccc23)CC1,51.9,–,–
NC(=O)c1cc2c(cn1)sc1ccccc12,24.7,17,IC50 [23]: 1560 µM
Cl.O=C(c1cc2c(cn1)sc1ccccc12)N1CCCN(Cc2ccc(Cl)cc2)CC1,34.7,12.8,–
CCCNC(=O)c1cc2c(cn1)sc1ccccc12,42,17.3,–
CCCOC(=O)c1cc2c(cn1)sc1ccccc12,22.1,9.6,IC50 [23]: 1530 µM
O=C(c1cc2c(cn1)sc1ccccc12)N1CCOCC1,52.9,8.2,–
COC(=O)c1cc2c(cn1)sc1ccccc12,31.6,8.5,–
CN1CCCN(C(=O)c2cc3c(cn2)sc2ccccc23)CC1.Cl,40.3,3.5,–
COC(=O)CCCNC(=O)c1cc2c(cn1)sc1ccccc12,–,9.9,–
CCOC(=O)C1Cc2c(sc3ccccc23)CN1C(=O)c1ccccc1 (centres undefined),35.1,6.3,–
O=C(O)c1cc2c(cn1)sc1ccccc12,55.8,4,–
CN1C(=O)CN=C(c2ccccc2)c2cc(Cl)ccc21 [DIAZEPAM],–,–,No. of shocks (Rattus norvegicus [25]): 22.7; Activity (Rattus norvegicus [26]): 39.4; Antiamnesic activity (Mus musculus [27]): 1; Anticonflict activity (Rattus norvegicus [28]): 25
CCOC(=O)C1Cc2c(sc3ccccc23)CN1C(C)=O (centres undefined),37.3,–,–
CCOC(=O)C1Cc2c(sc3ccccc23)CN1 (centres undefined),90.5,27.2,Anticonflict activity (Rattus norvegicus [29]): 6; Activity (Mus musculus [15]): 110.1; Antiamnesic activity (Mus musculus [30]): 6; No. of shocks (Rattus norvegicus [16]): 30.2; Anticonflict activity (Rattus norvegicus [31]): 8; Activity (Mus musculus [8]): 68.8; Antiamnesic activity (Mus musculus [32]): 2; No. of shocks (Rattus norvegicus [17]): 29.3; Anticonflict activity (Rattus norvegicus [18]): 3; No. of shocks (Rattus norvegicus [19]): 16.1; Antiamnesic activity (Mus musculus [33]): 4; IC50 [23]: 1500 µM; Activity (Mus musculus [34]): 129.9
